Experimental data as given in PubChem BioAssay (NCI).
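Exposure lasted 48 hours, with cells grown in 96-well plates and compounds tested at five concentrations. TGI is the concentration that stops growth completely.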

Columns and labels:
Experiment in all cases: NCI tumour cell line growth inhibition, 48 h
[1] = system: 786-0 renal
[2] = system: A498 renal
[3] = system: A549 NSCLC
[4] = system: ACHN renal
[5] = system: BT-549 breast
[6] = system: CAKI-1 renal
[7] = system: CCRF-CEM leukemia
[8] = system: COLO 205 colon
[9] = system: DU-145 prostate
[10] = system: EKVX NSCLC
[11] = system: HCC-2998 colon
[12] = system: HCT-15 colon
[13] = system: HL-60(TB) leukemia
[14] = system: HOP-92 NSCLC
[15] = system: HS 578T breast
[16] = system: IGROV1 ovarian
[17] = system: K-562 leukemia
[18] = system: KM12 colon
[19] = system: LOX IMVI melanoma
[20] = system: M14 melanoma
[21] = system: MALME-3M melanoma
[22] = system: MCF7 breast
[23] = system: MDA-MB-231 breast
[24] = system: MDA-MB-435
[25] = system: MDA-N
[26] = system: MOLT-4 leukemia
[27] = system: NCI-H226 lung
[28] = system: NCI-H460 lung
[29] = system: NCI-H522 lung
[30] = system: NCI/ADR-RES ovarian
[31] = system: OVCAR-3 ovarian
[32] = system: OVCAR-4 ovarian
[33] = system: OVCAR-5 ovarian
[34] = system: OVCAR-8 ovarian
[35] = system: PC-3 prostate
[36] = system: RPMI-8226 leukemia
[37] = system: RXF 393 renal
[38] = system: SF-268 CNS
[39] = system: SF-295 CNS
[40] = system: SF-539 CNS
[41] = system: SK-MEL-2 melanoma
[42] = system: SK-MEL-28 melanoma
[43] = system: SK-MEL-5 melanoma
[44] = system: SN12C renal
[45] = system: SNB-19 CNS
[46] = system: SNB-75 CNS
[47] = system: SR leukemia
[48] = system: SW-620 colon
[49] = system: TK-10 renal
[50] = system: U251 CNS
[51] = system: UACC-257 melanoma
[52] = system: UACC-62 melanoma
[53] = system: UO-31 renal
[54] = system: HCT-116 colon
[55] = system: HOP-62 NSCLC
[56] = system: HT29 colon
[57] = system: NCI-H23 lung
[58] = system: SK-OV-3 ovarian
[59] = system: T-47D breast

Cc1cc(C)c2c(c1)CC1(Cc3c(C)cc(C)cc3C1=O)C2=O (stereo not drawn)
TGI [1]: > 100 µM | TGI [2]: > 100 µM | TGI [3]: > 100 µM | TGI [4]: > 100 µM | TGI [5]: > 100 µM | TGI [6]: > 100 µM | TGI [7]: > 100 µM | TGI [8]: > 100 µM | TGI [9]: > 100 µM | TGI [10]: > 100 µM | TGI [11]: > 100 µM | TGI [12]: > 100 µM | TGI [13]: > 100 µM | TGI [14]: > 100 µM | TGI [15]: > 100 µM | TGI [16]: > 100 µM | TGI [17]: > 100 µM | TGI [18]: > 100 µM | TGI [19]: > 100 µM | TGI [20]: > 100 µM | TGI [21]: > 100 µM | TGI [22]: > 100 µM | TGI [23]: > 100 µM | TGI [24]: > 100 µM | TGI [25]: > 100 µM | TGI [26]: > 100 µM | TGI [27]: > 100 µM | TGI [28]: > 100 µM | TGI [29]: > 100 µM | TGI [30]: > 100 µM | TGI [31]: > 100 µM | TGI [32]: > 100 µM | TGI [33]: > 100 µM | TGI [34]: > 100 µM | TGI [35]: > 100 µM | TGI [36]: > 100 µM | TGI [37]: > 100 µM | TGI [38]: > 100 µM | TGI [39]: > 100 µM | TGI [40]: > 100 µM | TGI [41]: > 100 µM | TGI [42]: > 100 µM | TGI [43]: > 100 µM | TGI [44]: > 100 µM | TGI [45]: > 100 µM | TGI [46]: > 100 µM | TGI [47]: > 100 µM | TGI [48]: > 100 µM | TGI [49]: > 100 µM | TGI [50]: > 100 µM | TGI [51]: > 100 µM | TGI [52]: > 100 µM | TGI [53]: > 100 µM

S=C(Nc1ccc2c(c1)Cc1ccccc1-2)Nc1ccc2c(c1)Cc1ccccc1-2
TGI [1]: > 100 µM | TGI [2]: > 100 µM | TGI [3]: > 100 µM | TGI [4]: > 100 µM | TGI [5]: > 100 µM | TGI [6]: > 100 µM | TGI [7]: 27.2 µM | TGI [8]: > 100 µM | TGI [9]: > 100 µM | TGI [10]: > 100 µM | TGI [11]: > 100 µM | TGI [54]: > 100 µM | TGI [12]: > 100 µM | TGI [13]: 22.4 µM | TGI [55]: > 100 µM | TGI [14]: > 100 µM | TGI [15]: > 100 µM | TGI [56]: > 100 µM | TGI [16]: > 100 µM | TGI [17]: 74.5 µM | TGI [18]: > 100 µM | TGI [19]: > 100 µM | TGI [20]: > 100 µM | TGI [21]: > 100 µM | TGI [22]: > 100 µM | TGI [23]: > 100 µM | TGI [24]: > 100 µM | TGI [25]: > 100 µM | TGI [26]: 39.5 µM | TGI [27]: > 100 µM | TGI [57]: > 100 µM | TGI [28]: > 100 µM | TGI [29]: > 100 µM | TGI [30]: > 100 µM | TGI [31]: > 100 µM | TGI [32]: > 100 µM | TGI [33]: > 100 µM | TGI [34]: > 100 µM | TGI [35]: > 100 µM | TGI [36]: > 100 µM | TGI [37]: > 100 µM | TGI [38]: > 100 µM | TGI [39]: > 100 µM | TGI [42]: > 100 µM | TGI [43]: > 100 µM | TGI [58]: > 100 µM | TGI [44]: > 100 µM | TGI [45]: > 100 µM | TGI [48]: > 100 µM | TGI [59]: > 100 µM | TGI [49]: > 100 µM | TGI [50]: > 100 µM | TGI [51]: > 100 µM | TGI [52]: > 100 µM | TGI [53]: > 100 µM
